The conditions of data set [1]: in vivo; cited from earlier work.
Another data set has as its system 5-Lipoxygenase. Put plainly: 5-Lipoxygenase inhibitory activity, colorimetric method (ferric xylenol orange). The format is biochemical. As for the experimental part: 5-Lipoxygenase Activity: The new phytochemical compositions were screened for their 5-Lipoxygenase inhibitory potential using colorimetric method. The assay mixture contained 50 mM phosphate buffer pH 6.3, 5-Lipoxygenase, various concentrations of test substances in dimethyl sulphoxide and linoleic acid in a total volume of 0.5 mL, after 5 min incubation of above reaction mixture, 0.5 mL ferric xylenol orange reagent was added and OD was measured after two minutes at 585 nm using spectrophotometer. Controls were run along with test in a similar manner except using vehicle instead of test substance solution. Percent inhibition was calculated by comparing absorbance of test solution with that of control. The new phytochemical compositions of this invention are found to show 5-lipoxygenase activity (Table 1; 5-lipoxygenase activity is expressed in % of inhibition at 100 μg concentrations; higher the % inhibitory values, higher is the activity).

The nature of data set [2]: DPPH free radical scavenging activity. On the procedure: DPPH Free Radical Scavenging Activity. DPPH (1,1-diphenyl-2-picryl-hydrazyl) radical scavenging activity was measured based on the reduction of methanolic solution of the colored DPPH. Free radical scavenging ability of the test drug in ethanol added to the methanolic solution of DPPH is […] to the difference in initial and final absorption of DPPH solution at 516 nm. The reaction mixture contained 1×10^−4 mM methanolic solution of DPPH and various concentrations of test drugs. The percentage inhibition was determined by comparing the absorbance values of test and control tubes.
(§1) The new phytochemical compositions of this invention are found to show antioxidant activity (Table 1; antioxidant activity is measured by two different mechanisms (a) Nitro blue tetrazolium (NBT) (b) DPPH free radical scavenging methods and are expressed in % of inhibition at 500 μg concentrations; higher the % inhibitory values, higher is the activity).
Background: The DPPH test is a chemical assay of radical scavenging.

The nature of data set [3]: Superoxide free radical-scavenging activity by NBT (nitro blue tetrazolium) method. On the procedure: Superoxide Free Radical-Scavenging Activity. The superoxide free radical-scavenging activity was determined by the NBT (nitro blue tetrazolium) method. The reaction mixture contained EDTA (6.6 mM), NaCN (3 μg), riboflavin (2 μM), NBT (50 μM), various concentrations of the test drug in ethanol and a phosphate buffer (58 mM, pH 7.8) in a final volume of 3 ml. Optical density was measured at 560 nm. The test tubes were uniformly illuminated with an incandescent lamp for 15 min, after which the optical density was measured again at 560 nm. The percentage inhibition and superoxide radical generation was measured by comparing the absorbance values of the control and those of the test compounds.
as §1

For data set [4] the following is noted: similar active dose; animal study; cited from earlier work.

As a reminder, the LD50 is the dose expected to kill half of the subjects tested.

Take `N[C@@H](Cc1c[nH]c2ccc(O)cc12)C(=O)O` [Composition 5-HTP, 5-Hydroxytryptophan]: in data set [1], the LD50 is > 2500 mg/kg.

For “Calcium, potassium salt of (−)-HCA [HCA (70%)]”, in the data set with 5-Lipoxygenase, the “% inhibition of 5-LOX activity at 100 μg concentrations” value came out at 0.2%. The “% inhibition of DPPH free radical scavenging activity at 500 μg concentrations” value in data set [2] is given as 0%. In addition, the “% inhibition of NBT free radical scavenging activity at 500 μg concentrations” value in data set [3] was found to be 25.5%.

For `CCCCC1C(=O)N(c2ccccc2)N(c2ccccc2)C1=O` [phenylbutazone], the ulcerogan index in data set [4] is 1.7.

Turning to `Cl.N[C@H]1C(O)O[C@H](CO)[C@@H](O)[C@@H]1O` (some centres unmarked) [Glucosamine HCl, glucosamine hydrochloride], the “% inhibition of 5-LOX activity at 100 μg concentrations” value in the data set with 5-Lipoxygenase came to 0%. For the same molecule, in data set [2], the “% inhibition of DPPH free radical scavenging activity at 500 μg concentrations” value is recorded as 2.8%. For the same molecule, in data set [3], the “% inhibition of NBT free radical scavenging activity at 500 μg concentrations” value was 5.6%.

(Values after patent US20050282772A1, “New dietary supplement composition for obesity and inflammation” (priority 2004, published 2005).)
